{"source": "patent US20050106226A1", "about": "“Pretreatment method and system for enhancing transdermal drug delivery” (priority 2003, published 2005)", "key": {"[1]": {"assay": "Passive transdermal delivery of PPS from hydrogel gel patch after microprojection array pretreatment, determined by urinary excretion of tritium", "assay_type": "in vivo, hairless guinea pig", "settings": "passive diffusion", "description": "In this experiment, PPS was delivered by passive diffusion through skin pathways created by a pretreatment device having a microprojection array. The microprojection array comprised a stainless steel sheet having a thickness of 0.025 mm, trapezoidally shaped microprojections bent at an angle of approximately 90° to the plane of the sheet and a microprojection density of 241 microprojections/cm^2. […] The gel patch comprised a foam, double adhesive ring (diameter 3.8 cm, thickness 0.16 cm) having 0.35 mL of a hydrogel formulation and a skin contact area of 2 cm^2. The hydrogel formulation included tritiated PPS at 50 mg/mL in a 2% hydroxyethyl cellulose ([…], HERCULES Int. Lim. Netherlands, determined molecular weight: Mw 1890000, Mn 1050000) hydrogel. […] The amount of the biologically active agent (or drug) that penetrated the skin during selected time intervals was determined by measuring urinary excretion of tritium (previous studies had shown that in HGP's 32% of 3H-PPS injected intravenously is excreted in urine). […] After 24 h delivery, more than 6 mg of PPS had been administered systemically."}, "[2]": {"settings": "injected intravenously, HGP; cited from earlier work"}}, "data": [{"substance": "pentosan polysulfate [PPS]", "values": [{"measurement": "amount of PPS administered systemically", "setting": "[1]; after 24 h delivery, tritiated PPS 50 mg/mL in 2% HEC hydrogel, 0.35 mL, 2 cm^2", "result": "more than 6 mg"}, {"measurement": "flux of PPS through the skin", "setting": "[1]; FIG. 19", "result": "time dependant flux"}, {"measurement": "fraction of 3H-PPS excreted in urine", "setting": "[2]", "result": 32, "unit": "%"}]}]}
